Experimental data reported in patent US7691901B2, “Carotenoid analogs or derivatives for the inhibition and amelioration of inflammation” (Cardax Pharmaceuticals Inc., priority 2004, dated 2010).

Columns and labels:
o-tyrosine (oY/F) = test: Thioglycollate/Zymosan-induced peritonitis model: molar ratios of o-tyrosine (oY/F); type: in vivo, mice
Description: Thioglycollate/Zymosan—Induced Peritonitis Model: Wild-type mice were administered either 500 mg/kg body weight of disodium disuccinate astaxanthin (ddAst/Cardax™) in an oil emulsion vehicle, or normal saline (NS) as a negative control, by oral gavage at 24 hours intervals beginning 7 days prior to the induction of peritonitis. Peritonitis was induced experimentally as follows: mice were injected intraperitoneally with 1 ml of 4% by weight thioglycollate (Tg) broth, to induce the recruitment of proinflammatory cells to the peritoneum. Either 16 hours or 72 hours after recruitment, approximately half of the mice were injected intraperitoneally with 250 mg/kg body weight of zymosan (Z) for a further 4 hours. The mice not receiving zymosan underwent no further treatment. Peritoneal lavage was performed in control animals or animals treated with (ddAst) 16 hours post Tg injection, or 20 h following the combination of both Tg injection (16 hours) followed by Z injection (4 hours), as indicated (Tg/Z). Peritoneal lavages were performed with phosphate-buffered saline containing antioxidant (0.1 mM butylated hydroxytoluene (BHT)) and 2 mM of the metal chelator diethylenetriamine pentaacetic acid (DTPA) according to established practices in the art. The lavage suspensions were transferred to screw-capped tubes under an argon atmosphere, and immediately centrifuged at 1000 rpm in a table top microcentrifuge for 10 min at 4° C. to remove whole cells and debris. All analyses of lipid peroxidation products was performed on cell-free lavage supernatants. Cell pellets were resuspended in phosphate-buffered saline containing 0.1 mM BHT and 0.1 mM DTPA, and differential cell counts (macrophages, monocytes, eosinophils, lymphocytes, neutrophils, and erythrocytes) were performed on cytospun preparations of isolated cells according to established procedures in the art.
Electrospray ionization tandem mass spectrometry was used to simultaneously quantify individual molecular species of HETEs, HPETEs, the prostaglandin PGF2α, F2-isoprostanoids, hydroxy- and hydroperoxy-octadecadienoic acids (H(P)ODEs), and their precursors, arachidonic acid (AA) and linoleic acid (LA). Additionally, the molar ratios of o-tyrosine (oY/F). were measured.

[1] = Single- and multiple-dose pharmacokinetics of an oral preparation in a murine model; type: in vivo; settings: oral preparation of the racemic compound in lipophilic emulsion
superoxide anion = test: Direct superoxide anion scavenging by EPR spectroscopy (DEPMPO spin-trap) in PMA-stimulated isolated human neutrophils; type: cell-based; settings: aqueous phase; statistical mixture of stereoisomers and individual stereoisomers
Description: Leukocyte Isolation and Preparation. Human polymorphonuclear leukocytes (PMNs) were isolated from freshly sampled venous blood of a single volunteer by Percoll density gradient centrifugation as described previously. Briefly, each 10 mL of whole blood was mixed with 0.8 mL of 0.1 M EDTA and 25 mL of saline. The diluted blood was then layered over 9 mL of Percoll at a specific density of 1.080 g/mL. After centrifugation at 400×g for 20 min at 20° C., the plasma, mononuclear cell, and Percoll layers were removed. Erythrocytes were subsequently lysed by addition of 18 mL of ice-cold water for 30 s, followed by 2 mL of 10× PIPES buffer (25 mM PIPES, 110 mM NaCl, and 5 mM KCl, titrated to pH 7.4 with NaOH). Cells were then pelleted at 4° C., the supernatant was decanted, and the procedure was repeated. After the second hypotonic cell lysis, cells were washed twice with PAG buffer [PIPES buffer containing 0.003% human serum albumin (HSA) and 0.1% glucose]. Afterward, PMNs were counted by light microscopy on a hemocytometer. The isolation yielded PMNs with a purity of >95%. The final pellet was then suspended in PAG-CM buffer (PAG buffer with 1 mM CaCl2 and 1 mM MgCl2). EPR Measurements. All EPR measurements were performed using a Bruker ER 300 EPR spectrometer operating at X-band with a TM110 cavity as previously described. The microwave frequency was measured with a Model 575 microwave counter (EIP Microwave, Inc., San Jose, Calif.). To measure superoxide anion (O2) generation from phorbol-ester (PMA)-stimulated PMNs, EPR spin-trapping studies were performed using the spin trap DEPMPO (Oxis, Portland, Oreg.) at 10 mM. 1×10^6 PMNs were stimulated with PMA (1 ng/mL) and loaded into capillary tubes for EPR measurements. To determine the radical scavenging ability of 3 and 9 in aqueous and ethanolic formulations, PMNs were pre-incubated for 5 minutes with test compound, followed by PMA stimulation.
Instrument settings used in the spin-trapping experiments were as follows: modulation amplitude, 0.32 G; time constant, 0.16 s; scan time, 60 s; modulation frequency, 100 kHz; microwave power, 20 milliwatts; and microwave frequency, 9.76 GHz. The samples were placed in a quartz EPR flat cell, and spectra were recorded. The component signals in the spectra were identified and quantified as reported previously.

[2] = 16 Hour Thioglycollate/4 Hour Zymosan
[3] = 72 Hour Thioglycollate/4 Hour Zymosan

SMILES: CC1=C(/C=C/C(C)=C/C=C/C(C)=C/C=C/C=C(C)/C=C/C=C(C)/C=C/C2=C(C)C(=O)C(OC(=O)CCC(=O)O)CC2(C)C)C(C)(C)CC(OC(=O)CCC(=O)O)C1=O (stereo not shown) [Cardax, disodium disuccinate astaxanthin]
- oY/F (mmol/mol), MEAN (o-tyrosine (oY/F); [2]): 0.145 mmol/mol
- oY/F (mmol/mol), MEDIAN (o-tyrosine (oY/F); [2]): 0.117 mmol/mol
- oY/F (mmol/mol), MEAN (o-tyrosine (oY/F); 16 Hour Thioglycollate): 0.678 mmol/mol
- oY/F (mmol/mol), MEDIAN (o-tyrosine (oY/F); 16 Hour Thioglycollate): 0.521 mmol/mol
- oY/F (mmol/mol), MEAN (o-tyrosine (oY/F); [3]): 0.249 mmol/mol
- oY/F (mmol/mol), MEDIAN (o-tyrosine (oY/F); [3]): 0.118 mmol/mol
- oY/F (mmol/mol), MEAN (o-tyrosine (oY/F); 72 Hour Thioglycollate): 0.257 mmol/mol
- oY/F (mmol/mol), MEDIAN (o-tyrosine (oY/F); 72 Hour Thioglycollate): 0.198 mmol/mol
- oY/F compared to NS (o-tyrosine (oY/F); 16 hours Tg/4 hour Z, 500 mg/kg oral gavage): significant decrease
- oY/F (mmol/mol), MEAN (o-tyrosine (oY/F); Baseline): 0.595 mmol/mol
- oY/F (mmol/mol), MEDIAN (o-tyrosine (oY/F); Baseline): 0.565 mmol/mol
- plasma and tissue levels of nonesterified astaxanthin [1]: significant plasma and tissue levels of nonesterified astaxanthin were achieved
- direct scavenging of superoxide anion (superoxide anion): potent direct scavengers of superoxide anion in the aqueous phase
